Paper PMC10683472, “Deep Learning-Driven Library Design for the De Novo Discovery of Bioactive Thiopeptides” (ACS Central Science, 2023)
Read-outs that look alike come from different tables or passages of the source. *1 amine or outer side, *2 acyl side, *3 side chain or, on linkers, in order; H or OH if unused. Where a SMILES comes first, the peptide text is derived from it. Where no end group is shown, it is not given here. [ ]: non-standard residue; d: D form. hGln = L-homoglutamine, NC(=O)CCC[C@H](N[*:1])C(=O)[*:2]; pyridine‑bisazole = not defined here; Nle = CCCC[C@H](N)C(=O)O; Dhb = C/C=C(\N)C(=O)O

Experiments:
THP1-XBlue cells = experiment: Cell viability with Cell Counting Kit-8; conditions: at the tested concentrations
Experimental: 2.13. NF-kB signaling pathway inhibition assay
THP-1 Cellular Assay. THP1-XBlue cells containing an NF-kB-inducible secreted embryonic alkaline phosphatase (SEAP) reporter gene (InvivoGen) were seeded to 96-well assay plates (10^5 cells/well) with RPMI 1640 culture medium containing 10% fetal calf serum. The cells were pre-treated with various concentration of analyte thiopeptide inhibitor in 0.1% DMSO and incubated at 37 °C for 6 h. LPS-EK (30 ng/mL, InvivoGen) was subsequently added to activate the NF-kB signalling for 20 h. To quantitate SEAP activity, supernatants were harvested (300 g, 5min) and mixed with Quanti-Blue (InvivoGen) detection reagent following the manufacturer’s instructions.
Cells were assayed with cell counting kit-8 in parallel to rule out potential cytotoxicity. The plates

IRAK4 [1] = target: T1, IRAK4 (Homo sapiens, UniProt Q9NWZ3); experiment: mRNA display affinity selection against IRAK4, NGS abundance; format: binding; design: acids 1-460; NP_057207.2) was purchased from Carna Biosciences; purchased Carna Biosciences (Kobe, Japan); conditions: IRAK4 selection, NGS abundance rank
T1 sequence (Q9NWZ3 1-460): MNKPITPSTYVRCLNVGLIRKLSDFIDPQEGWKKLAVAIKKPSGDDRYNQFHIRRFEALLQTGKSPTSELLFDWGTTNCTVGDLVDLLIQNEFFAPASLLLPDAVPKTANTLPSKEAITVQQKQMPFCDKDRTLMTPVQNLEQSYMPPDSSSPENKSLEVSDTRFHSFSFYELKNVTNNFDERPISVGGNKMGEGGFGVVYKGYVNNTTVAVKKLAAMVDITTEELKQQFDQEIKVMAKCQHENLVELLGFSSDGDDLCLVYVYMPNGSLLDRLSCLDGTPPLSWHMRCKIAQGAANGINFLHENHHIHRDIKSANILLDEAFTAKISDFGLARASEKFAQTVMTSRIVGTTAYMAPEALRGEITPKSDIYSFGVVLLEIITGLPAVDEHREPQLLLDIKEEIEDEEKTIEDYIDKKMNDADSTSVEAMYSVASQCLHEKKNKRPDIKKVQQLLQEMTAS

IRAK4 [2] = target: T1, IRAK4; experiment: Single-round mRNA display binding assay (qPCR), IRAK4; design: acids 1-460; NP_057207.2) was purchased from Carna Biosciences; purchased Carna Biosciences (Kobe, Japan); conditions: ratio of cDNA recoveries (qPCR), IRAK4 pulldown over beads only, single-round selection
Serum stability assay = format: in vitro ADME; conditions: human serum, 37 °C, LC/MS; for half-life at 10 µM: pH 7.6, read-out: serum stability τ1/2 (converted)
Experimental: Next, we tested the metabolic stability of the discovered thiopeptides. The compounds were incubated in human serum at 37 °C in the presence of an internal control, and the amounts of the remaining analytes were quantified by LC/MS (Figures S27 and 28). […] At the other extreme, IR11 rapidly degraded in human serum with τ1/2 = 0.5 h. […]
Kinetic parameters and affinities of the […]
2.12. Thiopeptide metabolic stability experiments
The mixtures were stirred
well and transferred to a 37 °C thermostat. […]

[3] = target: T2, Biotinylated IRAK4 (kinase domain, amino acids 1-460; NP_057207.2) (Homo sapiens, UniProt Q9NWZ3); experiment: Surface plasmon resonance binding to IRAK4
T2 construct: acids 1-460; NP_057207.2) was purchased from Carna Biosciences; purchased Carna Biosciences (Kobe, Japan)
T2 sequence (Q9NWZ3 1-460): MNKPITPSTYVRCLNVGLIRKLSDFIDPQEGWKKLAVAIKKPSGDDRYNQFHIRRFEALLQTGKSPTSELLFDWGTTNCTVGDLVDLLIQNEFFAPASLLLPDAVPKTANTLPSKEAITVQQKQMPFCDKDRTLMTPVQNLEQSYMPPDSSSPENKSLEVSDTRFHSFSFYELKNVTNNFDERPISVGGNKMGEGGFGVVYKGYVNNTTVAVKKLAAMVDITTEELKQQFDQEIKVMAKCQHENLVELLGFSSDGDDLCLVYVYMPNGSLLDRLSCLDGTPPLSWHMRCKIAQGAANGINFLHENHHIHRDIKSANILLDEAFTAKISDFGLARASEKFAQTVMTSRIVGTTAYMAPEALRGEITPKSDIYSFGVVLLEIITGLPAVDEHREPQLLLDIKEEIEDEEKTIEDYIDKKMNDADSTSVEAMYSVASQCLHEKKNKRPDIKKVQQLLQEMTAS
From the text: Reagents were purchased from Nacalai Tesque, Wako Pure Chemical Industries, Sigma-Aldrich Japan, or TCI Chemicals and were used as received. Biotinylated IRAK4 (kinase domain, amino acids 1-460; NP_057207.2) was purchased from Carna Biosciences (Kobe, Japan). Recombinant human TLR10 Fc Chimera protein (extracellular domain, amino acid 20-576; Q9BXR5) was purchased from R&D system (#6619-TR-050). Anti-HA magnetic beads were from Pierce Thermo Fisher Scientific (#88836). Magnetic beads with immobilized streptavidin were from Invitrogen (Dynabeads Streptavidin C1, # 65001). Magnetic beads with immobilized streptavidin were from Invitrogen (Dynabeads Streptavidin M280, #11206D).
Protein purification and synthesis of Streptomyces lactacystinaeus tRNAGlu were done as previously described.1–3 Protein concentration measurements were carried out on a Nanodrop 2000c spectrophotometer (Thermo Scientific) equipped with a 5 mm pathlength quartz cuvette using extinction coefficient values calculated with ExPASy ProtParam tool (https://web.expasy.org/protparam).
Biochemical measurements (sections 2.10 – 2.14) were performed in triplicate or more. Most experiments were reproduced to an analogous outcome at least once. In the cases where the determination of biophysical parameters involved cell assay (CP50 and IC50), reported are standard errors of the fit; otherwise, error bars are standard deviations.
RNA extracted from the gel with 300 mM NaCl were collected by ethanol precipitation followed by centrifugation (15300 g for 15 min) and dissolved in water for storage. tRNAini was aminoacylated with eFx using biotin-Phe-CME as a substrate. tRNAini (25 µM) and eFx (25 µM) were incubated with biotin-Phe-CME (5 mM) in HEPES-KOH buffer (50 mM; pH 7.5) containing 600 mM MgCl2 on ice for 2 h. The reactions were stopped with the addition of 300 mM NaOAc (pH 5.2), and precipitated with ethanol. Precipitated RNA was recovered by centrifugation (15300 g for 15 min). The pellet was washed with 70% ethanol in water (v/v) containing 100 mM NaOAc (pH 5.2) and used in translation.
2.10. Surface plasmon resonance
Binding affinities between the thiopeptides and IRAK4/TLR10 were measured with a Biacore 8K instrument (GE Healthcare) at 25 °C. The assay buffer for IRAK4 binding analysis contained 50 mM Tris (pH 7.5), 150 mM NaCl, 10 mM MgCl2, 0.05% (v/v) tween-20 and 0.1% (v/v) DMSO. The […]
Biotinylated IRAK4 was immobilized on a Biacore CAP chip (GE Healthcare) to a surface density […]
step was allowed to proceed for 480 s. Kinetic parameters and affinities of the interaction were […]
provided by the manufacturer. The interaction sensorgrams were measured as single -cycle […]
Kinetic parameters and affinities of the
Evaluation Software v.3.0 (GE Healthcare).

IRAK4 [4] = target: T1, IRAK4; experiment: biochemical
[5] = target: T3, interleukin-1 receptor-associated kinase 4 (UniProt Q9NWZ3 1-460); experiment: SPR; surface plasmon resonance of synthetic thiopeptides on their target protein; conditions in S.I. 2.10 (not shown); conditions: both partners purified
T3 construct: interleukin-1 receptor-associated kinase 4 (IRAK4); also called IRAK4; IRAK4 kinase
T3 sequence (looked up): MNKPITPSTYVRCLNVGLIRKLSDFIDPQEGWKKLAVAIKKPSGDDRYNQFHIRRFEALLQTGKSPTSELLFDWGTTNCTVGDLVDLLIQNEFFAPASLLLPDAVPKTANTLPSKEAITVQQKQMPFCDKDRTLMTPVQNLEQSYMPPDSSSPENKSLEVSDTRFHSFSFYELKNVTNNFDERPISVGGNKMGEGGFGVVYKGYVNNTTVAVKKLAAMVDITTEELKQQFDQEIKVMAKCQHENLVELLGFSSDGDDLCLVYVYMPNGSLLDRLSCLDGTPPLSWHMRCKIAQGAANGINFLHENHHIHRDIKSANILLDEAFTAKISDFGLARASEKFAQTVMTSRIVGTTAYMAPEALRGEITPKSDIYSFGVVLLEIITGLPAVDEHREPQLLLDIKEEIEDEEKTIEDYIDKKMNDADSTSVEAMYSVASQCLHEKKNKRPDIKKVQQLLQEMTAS

[6] = target: T4, interleukin-1 receptor-associated kinase 4 (UniProt Q9NWZ3 1-460); experiment: cell-based or functional assay
T4 sequence (looked up): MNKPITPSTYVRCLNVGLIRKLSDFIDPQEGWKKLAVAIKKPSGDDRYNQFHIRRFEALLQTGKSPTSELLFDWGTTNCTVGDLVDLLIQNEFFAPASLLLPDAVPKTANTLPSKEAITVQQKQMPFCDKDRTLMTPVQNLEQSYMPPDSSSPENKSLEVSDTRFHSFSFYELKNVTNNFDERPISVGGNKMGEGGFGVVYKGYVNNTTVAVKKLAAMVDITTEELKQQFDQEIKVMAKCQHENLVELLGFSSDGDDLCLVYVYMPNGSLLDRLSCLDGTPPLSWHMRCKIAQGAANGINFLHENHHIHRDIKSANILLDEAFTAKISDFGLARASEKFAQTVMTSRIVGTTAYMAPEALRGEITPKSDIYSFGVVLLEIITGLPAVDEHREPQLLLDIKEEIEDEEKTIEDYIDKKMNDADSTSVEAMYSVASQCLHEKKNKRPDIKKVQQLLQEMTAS

CC[C@@H]1[C@H](F)C(=O)N[C@@H]1COc1nccc2cc(C(N)=O)c(OC)cc12 [PF-06650833, 1-{[(2S,3S,4S)-3-Ethyl-4-fluoro-5-oxopyrrolidin-2-yl]methoxy}-7-methoxyisoquinoline-6-carboxamide, reference compound]
cytotoxicity (Cell Counting Kit-8) (THP1-XBlue cells): not cytotoxic

C=C1NC(=O)[C@H](CCCCN)NC(=O)[C@H](Cc2c[nH]c3ccccc23)NC(=O)[C@H]([C@@H](C)O)NC(=O)[C@H](CCCNC(=N)N)NC(=O)[C@H](CCCNC(=N)N)NC(=O)[C@H](CCCCN)NC(=O)[C@H](Cc2c[nH]c3ccccc23)NC(=O)[C@H](CCCC(N)=O)NC(=O)[C@H](CC(C)C)NC(=O)[C@H]([C@@H](C)O)NC(=O)[C@H](Cc2c[nH]c3ccccc23)NC(=O)c2ccc(-c3nc(C(=O)OC)cs3)nc2-c2csc1n2 [IR8] (HELM PEPTIDE1{W.T.L.[O=C([C@H](CCCC(=O)[*:3])N[*:1])[*:2]].W.K.R.R.T.W.K}|PEPTIDE2{[am]}|CHEM1{[C=C(N[*:2])c1nc(-c2nc(-c3nc(C(=O)OC)cs3)ccc2C(=O)[*:1])cs1]}$PEPTIDE1,PEPTIDE2,4:R3-1:R1|PEPTIDE1,CHEM1,1:R1-1:R1|PEPTIDE1,CHEM1,11:R2-1:R2$$$V2.0; bridges inferred)
rank in pulldown(+) (IRAK4 [1]): 9
rank in pulldown(–) (IRAK4 [1]): 9
display P/N ratio (IRAK4 [2]): 152
half-life at 10 µM (Serum stability assay): 42 ± 4.8 min
koff [3]: 0.027 s⁻¹
kon [3]: 1.24e+06 M⁻¹ s⁻¹

C=C1NC(=O)[C@H](Cc2c[nH]cn2)NC(=O)[C@@H]2CCCN2C(=O)[C@H](CCCNC(=N)N)NC(=O)[C@H](CCCNC(=N)N)NC(=O)[C@H](CCCNC(=N)N)NC(=O)[C@H](C)NC(=O)[C@H](Cc2c[nH]c3ccccc23)NC(=O)[C@H](Cc2ccc(O)cc2)NC(=O)[C@H](CC(C)C)NC(=O)[C@H](CO)NC(=O)[C@H](CCSC)NC(=O)[C@H](C)NC(=O)[C@H](Cc2c[nH]c3ccccc23)NC(=O)c2ccc(-c3nc(C(=O)OC)cs3)nc2-c2csc1n2 [IR11] (HELM PEPTIDE1{W.A.M.S.L.Y.W.A.R.R.R.P.H}|CHEM1{[C=C(N[*:2])c1nc(-c2nc(-c3nc(C(=O)OC)cs3)ccc2C(=O)[*:1])cs1]}$PEPTIDE1,CHEM1,1:R1-1:R1|PEPTIDE1,CHEM1,13:R2-1:R2$$$V2.0)
rank in pulldown(+) (IRAK4 [1]): 30
rank in pulldown(–) (IRAK4 [1]): 15
display P/N ratio (IRAK4 [2]): 1072
serum stability τ1/2 (Serum stability assay): 0.5 h
half-life at 10 µM (Serum stability assay): 30 ± 2.4 min
koff ([3]; SPR, IRAK4, read-out: koff): 0.0021 s⁻¹
kon ([3]; SPR, IRAK4, read-out: kon): 783 M⁻¹ s⁻¹
IC50 (IRAK4 [4]): 4100 ± 300 nM

B1: thiopeptide IR11 (synthetic) (peptide)
chain: SWAMSLYWARRRPHSCSC
modifications: bridge (positions not given here) via pyridine‑bisazole; reading uncertain; also: macrocycle closed through pyridine-bisazole moiety, oxazole to thiazole change
Kd [5]: 2700 nM

B2: thiopeptide IR1 (synthetic) (peptide)
chain: SWS[Nle]KRQFITWHW[Dhb]SCSC
modifications: bridge (positions not given here) via pyridine‑bisazole; reading uncertain; also: macrocycle closed through pyridine-bisazole moiety, oxazole to thiazole change
Kd [5]: 230 nM

B3: thiopeptide IR8 (synthetic) (peptide)
chain: SWTL[hGln]WKRRTWKSCSC
modifications: bridge (positions not given here) via pyridine‑bisazole; reading uncertain; also: macrocycle closed through a pyridine-bisazole moiety, oxazole to thiazole change
Kd [5]: 22 nM

B4: thiopeptide IR1 (synthetic) (peptide)
chain: SWS[Nle]KRQFITWHW[Dhb]SCSC
modifications: bridge (positions not given here) via pyridine‑bisazole; not fully specified; reading uncertain; also: dehydroamino acids, macrocycle with pyridine-bisazole moiety, oxazole to thiazole mutation
IC50, lipopolysaccharide-induced NF-κB signaling (secreted alkaline phosphatase reporter) in THP1-XBlue monocytes [6]: 7000 nM
